# Laboratory results reported in patent US10617660B2, “Compositions containing benzoate compound and tannic acid for treating central nervous system disorders” (SyneuRx International (Taiwan) Corp., priority 2016, dated 2020).
# “Also recorded” adds a separate entry of the source.
# Experiments:
# MK801-treated mice [1] = test: Prepulse inhibition test of sensorimotor gating function (MK801-disrupted PPI); format: in vivo
# Experimental: (§1) C57BL/6J male mice were group housed (3-5 mice per cage) with food and water available ad libitum in polysulfone ventilated cages (Alternative Design, AR, USA) in the animal rooms. The colony was maintained on a 12/12-h light/dark cycle at the temperature of 22±2° C. and all behavioral studies will be performed during the dark cycle. All animals used in this study were adult mice (at least 2.5 months of age).
# The mice were randomly assigned into ten groups listed below:
# Group 9: Sodium benzoate (1000 mg/kg)+MK801
# Group 10: Sodium benzoate (200 mg/kg)+MK801
# Group 11: Sodium benzoate (600 mg/kg)+MK801
# Group 12: Sodium benzoate (200 mg/kg)+Tannic Acid (30 mg/kg)+MK801
# Group 13: Sodium benzoate (200 mg/kg)+Tannic Acid (60 mg/kg)+MK801
# Group 14: Sodium benzoate (600 mg/kg)+Tannic Acid (10 mg/kg)+MK801
# Group 15: Sodium benzoate (600 mg/kg)+Tannic Acid (30 mg/kg)+MK801
# Group 16: Sodium benzoate (600 mg/kg)+Tannic Acid (60 mg/kg)+MK801.
# Each mouse in Groups 8-16 received an acute administration of MK801 dissolved in normal saline (0.1 mg/kg, i.p.) 20 minutes prior to the behavioral tests. Each mouse in Groups 9-16 received an acute administration of sodium benzoate or sodium benzoate in combination with tannic acid (dissolved in PBS, 10, 30 or 60 mg/kg) via oral gavage 20 minutes prior to the MK801 administration.
# The mice were randomly assigned into five groups listed below:
# Group 19: Tannic acid_10 mg/kg+MK801
# Group 20: Tannic acid_30 mg/kg+MK801
# Each mouse in Groups 18-21 received an acute administration of MK-801 (a NMDA receptor antagonist, dissolved in normal saline (0.1 mg/kg, i.p.) 20 minutes prior to behavioral tests. On the other hand, each mouse in Groups 19-21 received an acute administration of tannic acid (dissolved in 30% PEG400 in PBS, 10, 30 or 100 mg/kg) via oral gavage 20 minutes prior to the MK801 administration.
# (§2) All mice of cohort 1 in this study were assessed with open field test as described herein. The mice of cohorts 2 and 3 in this study were assessed with prepulse inhibition test as described herein.
# Prepulse inhibition was used as an index of sensorimotor gating function using SR-LAB startle apparatus (San Diego Instruments, San Diego, Calif., USA). The startle stimulus was a 40 ms, 120 dB white noise burst. In the pre-pulse (pp)+pulse trials, a 20 ms white noise pre-pulse stimuli of 82 dB (pp10) or 90 dB (pp18) was presented 100 ms before a 40 ms 120 dB pulse. The trials were presented pseudo-randomly and separated by inter-trial interval of 15 s on average (varying between 10 to 20 s) under 72 dB background noise. The percentage of pre-pulse inhibition was evaluated by the following formula: % PPI=100×[(PA score)−(pp-P score)]/(PA score), where the PA score was the average of the PA value in the middle blocks.
# MK801-treated mice [2] = test: Open field test of spontaneous locomotor activity (MK801-induced hyper-locomotion); format: in vivo; details: for effect on MK801-induced hyperactivity (total distance traveled in open field test): oral gavage, cohort 1, FIG. 2
# Experimental: as §1
# The mice were randomly assigned into six groups listed below:
# Group 3: Sodium benzoate (1000 mg/kg)+MK801
# Group 4: Sodium benzoate (200 mg/kg)+MK801 […]
# Group 6: Sodium benzoate (200 mg/kg)+Tannic Acid (60 mg/kg)+MK801.
# Each mouse in Groups 2-6 received an acute administration of MK801 dissolved in normal saline (0.1 mg/kg, i.p.) 20 minutes prior to the behavioral tests. […]
# as §2
# The open field test is a common measurement of novelty induced exploratory behavior and general activity in both mice and rats. In this study, mice were placed in a Plexiglas cage (37.5 cm×21.5 cm×18 cm) under 50-65 lux light intensity. Their spontaneous locomotor activities were measured for 60 minutes using the EthoVision video tracking system (Noldus Information Technology, the Netherlands). The travel distance of each mouse was measured as an index of locomotion activity. It generates hyperactivity which is frequently applied as animal models including, but not limited to, schizophrenia, bipolar disorder, attention-deficit hyperactivity disorder, obsessive compulsive disorder, Tourette's syndrome, autism spectrum disorders, Fragile X syndrome, Parkinson's disease, dementia with Lewy bodies, and senile dementia (see Rubia et al., 2010; Sheppard and Bradshaw, 1999; Bent et al., 2014; Powell and Miyakawa, 2006; Nestler and Hyman, 2010; Bubeni{acute over ( )}kova{acute over ( )}-Vales{hacek over ( )}ova et al., 2008; Gobira et al., 2013; Lai et al., 2014; Maio et al., 2014; Sontag et al., 2010; Ding et al., 2014; Walitza et al., 2007; Finestone et al., 1982; Golimstok et al., 2011).
# [3] = MK801 0.1 mg/kg i.p., 20 minutes prior to test, model-inducing agent
smiles,measurement,setting,value
C[C@]12N[C@H](Cc3ccccc31)c1ccccc12 [MK801],effect on prepulse inhibition,MK801-treated mice [1]; [3],impairs prepulse inhibition
same,effect on locomotion (total distance traveled in open field test),MK801-treated mice [2]; [3],induced hyperactivity
O=C([O-])c1ccccc1.[Na+] [sodium benzoate],effect on rescuing MK801-disrupted PPI,"MK801-treated mice [1]; sodium benzoate alone 200 mg/kg or 600 mg/kg, oral gavage, cohort 2, prepulse 82 dB and 90 dB",did not show much effects
same,effect on MK801-impaired prepulse inhibition (percentage of pre-pulse inhibition),"MK801-treated mice [1]; sodium benzoate alone at 200, 600 or 1000 mg/kg, FIG. 3 legend",can be improved
same,effect on MK801-induced hyperactivity (total distance traveled in open field test),"MK801-treated mice [2]; sodium benzoate 200 mg/kg alone, MK801 0.1 mg/kg i.p.",less effective
same,effect on MK801-induced hyperactivity (total distance traveled in open field test),"MK801-treated mice [2]; sodium benzoate 1000 mg/kg alone, MK801 0.1 mg/kg i.p.",rescued/protected mice from MK801 induced hyper-locomotion more than 200 mg/kg; also recorded: completely prevented
O=C(OC[C@H]1O[C@@H](OC(=O)c2cc(O)c(O)c(OC(=O)c3cc(O)c(O)c(O)c3)c2)[C@H](OC(=O)c2cc(O)c(O)c(OC(=O)c3cc(O)c(O)c(O)c3)c2)[C@@H](OC(=O)c2cc(O)c(O)c(OC(=O)c3cc(O)c(O)c(O)c3)c2)[C@@H]1OC(=O)c1cc(O)c(O)c(OC(=O)c2cc(O)c(O)c(O)c2)c1)c1cc(O)c(O)c(OC(=O)c2cc(O)c(O)c(O)c2)c1 [tannic acid],effect on MK801-disrupted PPI,"MK801-treated mice [1]; tannic acid alone 10, 30, 100 mg/kg, oral gavage, MK801 0.1 mg/kg i.p., cohort 3, prepulse 82 dB and 90 dB, FIG. 4",little or no effects; also recorded: little or no improvement; also recorded: little or no impact
same,effect on rescuing MK801-induced hyper-locomotion,"MK801-treated mice [2]; tannic acid alone, dose not given",little or no effect
